# Tested on: Staphylococcus aureus
# Assay: Antibacterial against Staphylococcus aureus
# Type: functional
# Conditions: for MIC: Staphylococcus aureus
Compound,-logMIC,MIC
Oc1ccc(-c2nc(-c3ccc(Oc4ccccc4CBr)cc3)no2)cc1,3.969,8 µg/mL
O=C(O)c1cccc(Oc2ccc(-c3noc(-c4ccc(O)cc4)n3)cc2)c1,1.766,64 µg/mL
COc1ccc(-c2nc(-c3ccc(Oc4ccc(F)cc4)cc3)no2)cc1[N+](=O)[O-],1.158,128 µg/mL
CCC(C)Nc1c[nH]nc1-c1nc(-c2ccc(Oc3ccc(C(F)(F)F)cc3)cc2)no1 (centres undefined),1.243,128 µg/mL
CCOP(=O)(OCC)c1c[nH]nc1-c1nc(-c2ccc(Oc3ccc(C(F)(F)F)cc3)cc2)no1,1.379,128 µg/mL
Oc1c(F)cc(-c2nc(-c3ccc(Oc4ccc(C(F)(F)F)cc4)cc3)no2)cc1F,5.381,–
Oc1ccc(-c2nc(-c3ccc(Oc4ccc(Br)cc4)cc3)no2)cc1,5.321,2 µg/mL
FC(F)(F)c1ccc(Oc2ccc(-c3noc(-c4n[nH]cc4NC4CCCCC4)n3)cc2)cc1,1.3,128 µg/mL
O=c1[nH]c(-c2ccc(Oc3ccccc3)cc2)no1,0.686,128 µg/mL
Oc1ccc(-c2nc(-c3ccc(Oc4ccc(CBr)cc4)cc3)no2)cc1,1.196,128 µg/mL
[N-]=[N+]=Nc1cc(-c2noc(-c3ccc(O)cc3)n2)ccc1Oc1ccccc1,5.224,2 µg/mL
O=[N+]([O-])c1c(F)cc(-c2nc(-c3ccc(Oc4ccc(C(F)(F)F)cc4)cc3)no2)cc1F,1.286,128 µg/mL
Oc1ccc(-c2nc(-c3ccc(Oc4cccc(Br)c4)cc3)no2)cc1,4.628,4 µg/mL
O=[N+]([O-])c1c[nH]nc1-c1nc(-c2ccc(Oc3ccc(C(F)(F)F)cc3)cc2)no1,5.341,–
O=[N+]([O-])c1c[nH]nc1-c1nc(-c2ccc(Oc3ccc(I)cc3)cc2)no1,4.084,8 µg/mL
NC(=O)c1ccc(-c2nc(-c3ccc(Oc4ccc(F)cc4)cc3)no2)cc1,1.158,128 µg/mL
Fc1ccc(-c2nc(-c3ccccc3)no2)cc1,0.63,128 µg/mL
FC(F)(F)c1ccc(Oc2ccc(-c3noc(-c4n[nH]cc4I)n3)cc2)cc1,5.518,–
Oc1ccc(-c2nc(-c3ccc(F)cc3)no2)cc1,0.694,128 µg/mL
Oc1ccc(-c2nc(-c3ccc(Oc4ccncc4)cc3)no2)cc1,0.951,128 µg/mL
O=[N+]([O-])c1cc(-c2nc(-c3ccc(Oc4ccc(F)cc4)cc3)no2)cnc1O,3.898,–
O=P(O)(O)c1ccc(-c2nc(-c3ccc(Oc4ccc(F)cc4)cc3)no2)cc1,1.17,128 µg/mL
Nc1c[nH]c(-c2nc(-c3ccc(Oc4ccc(F)cc4)cc3)no2)c1,0.966,128 µg/mL
O=[N+]([O-])c1cc(-c2nc(-c3ccc(Oc4ccc(C(F)(F)F)cc4)cc3)no2)cnc1O,4.017,–

Compound,-logMIC,MIC
O=[N+]([O-])c1c[nH]nc1-c1nc(-c2ccc(Oc3ccc(F)cc3)cc2)no1,5.906,–
FC(F)(F)c1ccc(Oc2ccc(-c3noc(-c4c[nH]c5ncccc45)n3)cc2)cc1,1.194,128 µg/mL
O=[N+]([O-])c1cc(-c2noc(-c3ccc(O)cc3)n2)ccc1Oc1ccccc1,3.848,8 µg/mL
O=[N+]([O-])c1ccc(-c2nc(-c3ccc(Oc4ccccc4)cc3)no2)cc1,1.032,128 µg/mL
Oc1c(F)cc(-c2nc(-c3ccc(Oc4ccc(F)cc4)cc3)no2)cc1F,3.872,–
O=[N+]([O-])c1ccc(-c2nc(-c3ccc(Oc4ccc(C(F)(F)F)cc4)cc3)no2)cc1F,1.247,128 µg/mL
Fc1ccc(-c2nc(-c3ccc(Oc4ccccc4)cc3)no2)cc1,0.954,128 µg/mL
Brc1c[nH]nc1-c1nc(-c2ccc(Oc3ccccc3)cc2)no1,5.949,–
Nc1cncc(-c2nc(-c3ccc(Oc4ccc(C(F)(F)F)cc4)cc3)no2)c1,1.135,128 µg/mL
O=[N+]([O-])c1ccc(-c2nc(-c3ccc(Oc4ccccc4)cc3)no2)cc1F,1.081,128 µg/mL
COc1ccc(Oc2ccc(-c3noc(-c4ccc(O)cc4)n3)cc2)cc1,5.194,2 µg/mL
Oc1ccc(-c2nc(-c3ccc(Oc4ccccc4)c(F)c3)no2)cc1,3.774,8 µg/mL
Oc1ccc(-c2nc(-c3ccc(Oc4cccnc4)cc3)no2)cc1,0.951,128 µg/mL
Fc1ccc(Oc2ccc(-c3noc(-c4c[nH]c5ncccc45)n3)cc2)cc1,1.068,128 µg/mL
NS(=O)(=O)c1ccc(-c2nc(-c3ccc(Oc4ccc(F)cc4)cc3)no2)cc1,1.168,128 µg/mL
O=[N+]([O-])c1c(F)cc(-c2nc(-c3ccc(Oc4ccccc4)cc3)no2)cc1F,1.128,128 µg/mL
FC(F)(F)c1ccc(Oc2ccc(-c3noc(-c4n[nH]cc4NC4CCCC4)n3)cc2)cc1,1.269,128 µg/mL
O=[N+]([O-])c1c[nH]nc1-c1nc(-c2ccc(Oc3ccccc3)cc2)no1,5.163,–
FC(F)(F)c1ccc(Oc2ccc(-c3noc(-c4cc[nH]n4)n3)cc2)cc1,0.923,128 µg/mL
Fc1ccc(Oc2ccc(-c3noc(-c4n[nH]cc4Cl)n3)cc2)cc1F,6.619,0.5 µg/mL
Oc1ccc(-c2nc(-c3ccc(Oc4ccc(C(F)(F)F)cc4)cc3)no2)cc1,5.987,–
FC(F)(F)c1ccc(Oc2ccc(-c3noc(-c4n[nH]cc4Cl)n3)cc2)cc1,6.008,–
Nc1c[nH]nc1-c1nc(-c2ccc(Oc3ccccc3)cc2)no1,2.994,–
Nc1c[nH]nc1-c1nc(-c2ccc(Oc3ccc(C(F)(F)F)cc3)cc2)no1,4.573,–

Compound,-logMIC,MIC
O=P(O)(O)Oc1ccc(Oc2ccc(-c3noc(-c4ccc(F)cc4)n3)cc2)cc1,1.208,128 µg/mL
Nc1ccc(-c2nc(-c3ccc(Oc4ccccc4)cc3)no2)cc1,4.411,–
Oc1ccc(-c2nc(-c3ccc(Oc4ccc(C(F)(F)F)cc4)cc3)no2)cc1F,5.338,–
COC(=O)c1ccc(-c2nc(-c3ccc(Oc4ccc(F)cc4)cc3)no2)cc1,1.115,128 µg/mL
O=C1COc2cc(-c3nc(-c4ccc(Oc5ccccc5)cc4)no3)ccc2N1,1.102,128 µg/mL
Oc1ccccc1-c1nc(-c2ccc(Oc3ccccc3)cc2)no1,0.948,128 µg/mL
O=C(Nc1c[nH]nc1-c1nc(-c2ccc(Oc3ccc(C(F)(F)F)cc3)cc2)no1)c1ccccc1,1.345,128 µg/mL
Nc1c[nH]nc1-c1nc(-c2ccc(Oc3ccc(F)c(F)c3)cc2)no1,3.794,8 µg/mL
Oc1ccc(-c2noc(-c3ccc(O)cc3)n2)cc1,0.686,128 µg/mL
O=C(O)c1ccc(-c2nc(-c3ccc(Oc4ccc(F)cc4)cc3)no2)cc1,1.079,128 µg/mL
Clc1ccc(Oc2ccc(-c3noc(-c4n[nH]cc4Cl)n3)cc2)cc1Cl,6.01,1 µg/mL
c1ccc(Oc2ccc(-c3noc(-c4ccncc4)n3)cc2)cc1,0.902,128 µg/mL
c1ccc(Oc2ccc(-c3noc(-c4ccc5[nH]ccc5c4)n3)cc2)cc1,5.174,4 µg/mL
Fc1ccc(Oc2ccc(-c3noc(-c4ccc(Br)cc4)n3)cc2)cc1,1.167,128 µg/mL
COc1ccc(-c2nc(-c3ccc(Oc4ccccc4)cc3)no2)cc1[N+](=O)[O-],1.113,128 µg/mL
O=[N+]([O-])c1c[nH]c(-c2nc(-c3ccc(Oc4ccc(F)cc4)cc3)no2)c1,1.052,128 µg/mL
Oc1ccc(Oc2ccc(-c3noc(-c4ccc(F)cc4)n3)cc2)cc1,1.001,128 µg/mL
NS(=O)(=O)c1ccc(-c2nc(-c3ccc(Oc4ccc(C(F)(F)F)cc4)cc3)no2)cc1,1.282,128 µg/mL
OCC#Cc1c[nH]nc1-c1nc(-c2ccc(Oc3ccc(C(F)(F)F)cc3)cc2)no1,4.669,–
Nc1cc(-c2nc(-c3ccc(Oc4ccc(F)cc4)cc3)no2)cnc1O,1.046,128 µg/mL
Fc1ccc(Oc2ccc(-c3noc(-c4ccc5[nH]ccc5c4)n3)cc2)cc1,5.224,2 µg/mL
Oc1ccc(Oc2ccc(-c3noc(-c4ccc(O)cc4)n3)cc2)cc1,2.382,32 µg/mL
